Experimental findings from PubChem BioAssay (NCI) are described below.

Test systems include RXF 393 renal; CAKI-1 renal; U251 CNS; A549 NSCLC; SK-MEL-5 melanoma; COLO 205 colon; NCI-H522 lung; SK-MEL-2 melanoma; MALME-3M melanoma; RPMI-8226 leukemia.
Holding throughout (assay): NCI-60 cell line screen, 48 h

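Interpolation was linear, between the two tested concentrations surrounding the appropriate level; five concentrations were tested over 48 hours in 96-well plates. Here, GI50 denotes the concentration required for 50% inhibition of growth. TGI: total growth inhibition.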

Take `COc1ccc(Nc2nc3ccc(C(F)(F)F)cc3nc2-c2ccccc2)cc1OC`: the TGI was 83.6 µM with RXF 393 renal; 86.1 µM with CAKI-1 renal; more than 100 µM with U251 CNS; more than 100 µM in the test with A549 NSCLC; more than 100 µM in the test with SK-MEL-5 melanoma; 91.2 µM in the test with COLO 205 colon. Further, the TGI in the test with NCI-H522 lung was 75.3 µM; in the test with SK-MEL-2 melanoma it was more than 100 µM; in the test with MALME-3M melanoma, more than 100 µM.
`Cc1ccc(-c2csc(/N=C3\C(=O)Nc4ccccc43)n2)cc1`: the GI50 in the test on RXF 393 renal was 1.49 µM; in the test on U251 CNS, 1.46 µM; in the test on A549 NSCLC, 2.98 µM; in the test on SK-MEL-5 melanoma, 1.63 µM; in the test on COLO 205 colon, 1.31 µM; with RPMI-8226 leukemia it was 1.05 µM. The GI50 in the test with NCI-H522 lung was 1.51 µM; with SK-MEL-2 melanoma, 1.63 µM; in the test with MALME-3M melanoma, 1.52 µM. The TGI in the test with RXF 393 renal turned out to be 3.16 µM; in the test on U251 CNS it was 3.05 µM; with A549 NSCLC, 11.3 µM; in the test with SK-MEL-5 melanoma, 3.02 µM; in the test with COLO 205 colon, 3.23 µM; with RPMI-8226 leukemia, 4.29 µM. Moreover, the TGI with NCI-H522 lung was 3.49 µM; in the test on SK-MEL-2 melanoma it was 3.69 µM; in the test on MALME-3M melanoma, 3.4 µM.
`COc1ccc(OC)c(/C(C)=N/NC(N)=S)c1`: the TGI in the test on RXF 393 renal, in the test with CAKI-1 renal, with U251 CNS, in the test with A549 NSCLC, in the test on SK-MEL-5 melanoma and in the test on COLO 205 colon was more than 100 µM in each case. Also, the TGI in the test on RPMI-8226 leukemia, in the test on SK-MEL-2 melanoma and in the test on MALME-3M melanoma was more than 100 µM throughout.
In the case of `COc1ccc2c(c1)N1CCc3cc(OC)c(OC)cc3C1C2` (stereo not given), the TGI in the test on RXF 393 renal, with CAKI-1 renal, in the test with U251 CNS, with A549 NSCLC, with COLO 205 colon and in the test on NCI-H522 lung was more than 100 µM throughout. The TGI in the test with SK-MEL-2 melanoma and in the test on MALME-3M melanoma was more than 100 µM in each case.
Consider `COc1cc(NC(N)=NCCC(C)(C)Oc2ccc(C(F)(F)F)cc2)ncc1C#N`, for which the GI50 was 1.68 µM in the test on RXF 393 renal; 1.55 µM with CAKI-1 renal; 1.79 µM with U251 CNS; 1.73 µM with A549 NSCLC; 1.58 µM with SK-MEL-5 melanoma; 1.58 µM with COLO 205 colon. The GI50 is 1.47 µM in the test on NCI-H522 lung, 1.79 µM in the test with SK-MEL-2 melanoma and 1.81 µM with MALME-3M melanoma. Also, the TGI with RXF 393 renal was 3.11 µM; with CAKI-1 renal, 2.9 µM; in the test with U251 CNS, 3.22 µM; with A549 NSCLC it was 3.18 µM; in the test on SK-MEL-5 melanoma it was 2.93 µM; in the test on COLO 205 colon, 3.06 µM. For the same compound, the TGI with NCI-H522 lung came out at 2.9 µM; with SK-MEL-2 melanoma, 3.27 µM; in the test with MALME-3M melanoma it was 3.44 µM.
As to `CN(C)CC(C)(C)C(=O)/C=C/c1ccc(/C=C/C(=O)C(C)(C)CN(C)C)cc1`, the TGI came out at 2.66 µM in the test with RXF 393 renal; 2.9 µM with CAKI-1 renal; 3.04 µM in the test on U251 CNS; 7.4 µM in the test with A549 NSCLC; 5.13 µM in the test on SK-MEL-5 melanoma; 2.24 µM in the test with COLO 205 colon. Further, the TGI with RPMI-8226 leukemia is 5.47 µM; with NCI-H522 lung, 0.292 µM; with MALME-3M melanoma, 3.97 µM.
Take `Nc1ccc(C2=NN(c3ccccc3)C(c3ccc(Cl)cc3)C2)cc1` (stereo not given): the GI50 with RXF 393 renal is 1.55 µM; in the test with CAKI-1 renal it was 3.21 µM; in the test on U251 CNS, 1.47 µM; in the test with A549 NSCLC it was 2.45 µM; in the test on SK-MEL-5 melanoma, 2.71 µM; in the test with COLO 205 colon, 2.15 µM. For the same compound, the figures for the GI50 in the test on RPMI-8226 leukemia, in the test with NCI-H522 lung and with MALME-3M melanoma were 1.86 µM, 1.51 µM and 16.2 µM, respectively. The TGI with RXF 393 renal worked out at 3.12 µM; with CAKI-1 renal it was 14 µM; in the test with U251 CNS it was 2.79 µM; in the test on A549 NSCLC it was 7.98 µM; in the test on SK-MEL-5 melanoma it was 8.48 µM; with COLO 205 colon, 4.54 µM. Besides, the TGI with RPMI-8226 leukemia is 4.88 µM; in the test on NCI-H522 lung it was 3.27 µM; with MALME-3M melanoma, 43.8 µM.
`COCCCNC(=O)C1C(=O)N(CCCOC)C(=O)/C1=N\N` (stereo not given): the TGI in the test on RXF 393 renal, in the test on U251 CNS, in the test with A549 NSCLC, with SK-MEL-5 melanoma, in the test on COLO 205 colon and in the test on RPMI-8226 leukemia was more than 100 µM each time. Also, the TGI in the test on NCI-H522 lung, with SK-MEL-2 melanoma and in the test on MALME-3M melanoma was more than 100 µM each time.
For `C[N-]c1nnnn1C.[Au+].c1ccc([PH+](c2ccccc2)c2ccccc2)cc1`, the GI50 was 0.347 µM in the test with RXF 393 renal; 2.39 µM in the test on CAKI-1 renal; 2.28 µM in the test with U251 CNS; 14.7 µM in the test with A549 NSCLC; 1.59 µM with SK-MEL-5 melanoma; 3.33 µM with COLO 205 colon. For the same compound, the results for the GI50 with RPMI-8226 leukemia, in the test with SK-MEL-2 melanoma and in the test with MALME-3M melanoma were 1.29 µM, 1.66 µM and 1.42 µM, respectively. Moreover, the TGI with RXF 393 renal worked out at 1.26 µM; in the test on CAKI-1 renal, 5 µM; with U251 CNS, 5.56 µM; in the test with A549 NSCLC, 68.7 µM; in the test on SK-MEL-5 melanoma it was 3.65 µM; in the test on COLO 205 colon, 8.81 µM. Also, the TGI in the test on RPMI-8226 leukemia was determined as 4.54 µM; with SK-MEL-2 melanoma it was 3.78 µM; in the test on MALME-3M melanoma, 2.91 µM.
Consider `C=C1C(=O)O[C@@H]2C[C@@H](C)[C@@H]3C=CC(=O)[C@@]3(C)[C@@H](OC(=O)CC(=O)O[C@H]3[C@@H]4C(=C)C(=O)O[C@@H]4C[C@@H](C)[C@@H]4C=CC(=O)[C@]43C)[C@H]12`, for which the TGI in the test with RXF 393 renal was found to be 0.0258 µM; in the test with CAKI-1 renal, 0.111 µM; with U251 CNS, 0.149 µM; in the test with A549 NSCLC, 2.46 µM; in the test on SK-MEL-5 melanoma, 0.215 µM; with COLO 205 colon, 0.0403 µM. Also, the TGI in the test on RPMI-8226 leukemia amounted to 0.0866 µM; with SK-MEL-2 melanoma it was 0.224 µM; in the test on MALME-3M melanoma, 0.0368 µM.
